# According to US20120196933A1, “MEXILETINE PRODRUGS” (priority 2010, published 2012):
# Where “and” joins values, the source holds several entries; their conditions need not be identical. Equal values may be shown once. Where a name gives a salt, the structure may show the parent alone. Read-outs that look alike come from different tables or passages of the source. Marks after values point to notes of the source that are not given here.
# Tests used:
# [1] = Systemic availability of mexiletine in the cynomolgus monkey from mexiletine prodrugs (oral gavage); assay type: in vivo; conditions: 1 mg/kg mexiletine free base; for AUC of mexiletine / Cmax of mexiletine / T50% Cmax: plasma mexiletine; for F(rel): relative to mexiletine
# Procedure: Test substances (i.e., mexiletine, and various mexiletine amino acid prodrugs) were administered by oral gavage to groups of two and, in one case, five male cynomolgus monkeys. Blood samples were taken at various times after administration and submitted to analysis for the parent drug using a validated LC-MS-MS assay. Pharmacokinetic parameters derived from the plasma bioanalytical data were determined using Win Nonlin.
# [2] = Systemic availability of mexiletine in the dog from mexiletine prodrugs (oral gavage); assay type: in vivo; conditions: for AUC of mexiletine / Cmax of mexiletine / T50% Cmax / F(rel): 1 mg/kg mexiletine free base; for AUC of mexiletine / Cmax of mexiletine / T50% Cmax: plasma mexiletine; for F(rel): relative to mexiletine
# Procedure: Test substances (i.e., mexiletine, and various mexiletine amino acid prodrugs) were administered by oral gavage to groups of two or some cases five dogs. The characteristics of the test animals are set out in Table 6.
# Blood samples were taken at various times after administration and submitted to analysis for parent drug using a validated LC-MS-MS assay. Pharmacokinetic parameters derived from the plasma bioanalytical data were determined using Win Nonlin.
# [3] = In vitro stability of mexiletine prodrugs under conditions prevailing in the gut; assay type: physicochemical; conditions: HPLC; for Simulated gastric fluid (pH 1.1): % remaining after 2 h/37° C.: simulated gastric fluid pH 1.1, 2 h; for Simulated intestinal fluid (pH 6.8): % remaining after 2 h/37° C.: simulated intestinal fluid pH 6.8, 2 h
# Procedure: To investigate if the prodrugs of the present invention are stable in conditions mimicking the gut, various mexiletine amino acid prodrugs were incubated at 37° C. in simulated gastric and simulated intestinal juice (USP defined composition) for 2 hours. The remaining concentrations of the prodrug were then assayed by HPLC.
# [4] = as above; assay type: physicochemical; conditions: 0.1M phosphate buffer pH 7.4, 2 h
# [5] = tested on: rabbit stomach smooth muscle; assay: Electrical field stimulated contractions of isolated rabbit stomach smooth muscle; assay type: cell-based; conditions: rabbit stomach antrum strips, EFS 14 Hz, read-out: ED50 for attenuation of EFS induced contractions
# ferret = assay: Emetic effects following oral administration to the ferret; assay type: in vivo; conditions: oral 20 mg/kg mexiletine HCl or molar equivalent, individual animals
# Text: Male ferrets (n=7) were allowed free access to pelleted diet until late afternoon on the day prior to the day of each test. The food was then removed and the ferrets were starved overnight. Food was not returned until after completion of the emetic observation.
# [6] = oral, cited from earlier work
# [7] = tested on: patients with myotonic disorders; conditions: 1200 mg daily tocamide or 600 mg daily mexiletine, three divided doses; cited from earlier work
# [8] = listed as Mexiletine lysine amide
smiles,measurement,setting,value
Cc1cccc(C)c1OCC(C)NC(=O)C(N)CN (stereo not drawn),AUC of mexiletine,[1],0.801 µg·h/mL
same,Cmax of mexiletine,[1],0.0827 µg/mL
same,T50% Cmax,[1],7.88 h
same,F(rel),[1],116%
same,AUC of mexiletine,[2],8371 ng·h/mL
same,Cmax of mexiletine,[2],103 ng/mL
same,T50% Cmax,[2],10.0 h
same,F(rel),[2],77.9%
"Cc1cccc(C)c1OCC(C)NC(=O)C(N)CCCNC(=N)N(C)C.Cl.Cl (mixture of isomers) [Mexiletine-(S)—N,N-Dimethylarginine Amide Dihydrochloride]",Simulated gastric fluid (pH 1.1): % remaining after 2 h/37° C.,[3],99.7%
same,Simulated intestinal fluid (pH 6.8): % remaining after 2 h/37° C.,[3],96.8%
same,"pH 7.4, 37° C. 0.1M phosphate buffer: % remaining after 2 h/37° C.",[4],99.6%
"Cc1cccc(C)c1OCC(C)NC(=O)[C@@H](N)CCCCN.O=C(O)C(F)(F)F.O=C(O)C(F)(F)F (mixture of isomers) [Mexiletine (S)-lysine amide, (Rac)-Mexiletine-(S)-Lysine Ditrifluoroacetate]",EC50,[5],21.8 µM
same,Simulated gastric fluid (pH 1.1): % remaining after 2 h/37° C.,[3]; [8],99.8% and 100%
same,Simulated intestinal fluid (pH 6.8): % remaining after 2 h/37° C.,[3]; [8],80.8% and 100%
same,"pH 7.4, 37° C. 0.1M phosphate buffer: % remaining after 2 h/37° C.",[4],100%
same,AUC of mexiletine,[2],301** ng · h/mL
same,Cmax of mexiletine,[2],54.4** ng/mL
same,T50% Cmax,[2],5.0** h
same,F(rel),[2],28.0** %
"Cc1cccc(C)c1OCC(C)NC(=O)CN.O=C(O)C(F)(F)F (racemic) [Mexiletine glycine amide, Glycine-(rac)-mexiletine Trifluoroacetate]",T50% Cmax,[1],3.71** h
same,EC50,[5]; Oryctolagus cuniculus,9.16 µM
same,Simulated gastric fluid (pH 1.1): % remaining after 2 h/37° C.,[3],99.8%
same,Simulated intestinal fluid (pH 6.8): % remaining after 2 h/37° C.,[3],99.8%
same,Total number of individual incidences of retching,ferret; 2 h observation,20 (2×) and 2 (2×) and 12 and 0 and 10
same,Total number of individual incidences of vomiting,ferret; 2 h observation,5 and 1 (2×) and 2 and 0 (2×) and 3
same,Time to onset of retching,ferret,15 min (2×) and 13 min (2×) and 11 min and >120 min and 10 min
same,Time to onset of vomiting,ferret,17 min and 13 min (2×) and 11 min and >120 min (2×) and 15 min
same,"pH 7.4, 37° C. 0.1M phosphate buffer: % remaining after 2 h/37° C.",[4],99.9%
same,T50% Cmax,[2],5.5** h
"CNC(=N)NCCC[C@H](N)C(=O)NC(C)COc1c(C)cccc1C (stereo partly drawn) [Mexiletine (S)-N-methylarginine amide, Mexiletine-(S)—N-Methylarginine Amide Dihydrochloride]",Simulated gastric fluid (pH 1.1): % remaining after 2 h/37° C.,[3],99.8%
same,Simulated intestinal fluid (pH 6.8): % remaining after 2 h/37° C.,[3],93.6%
same,"pH 7.4, 37° C. 0.1M phosphate buffer: % remaining after 2 h/37° C.",[4],99.9%
"Cc1cccc(C)c1OCC(C)NC(=O)[C@@H](N)CC[S+](C)C (stereo partly drawn) [Mexiletine S-methyl-methionine chloride, Mexiletine-[(S)—S-Methyl-Methionine Chloride] Amide Hydrochloride]",T50% Cmax,[1],5.99 h
same,Simulated gastric fluid (pH 1.1): % remaining after 2 h/37° C.,[3],99.2%
same,Simulated intestinal fluid (pH 6.8): % remaining after 2 h/37° C.,[3],99.4%
same,"pH 7.4, 37° C. 0.1M phosphate buffer: % remaining after 2 h/37° C.",[4],99.8%
same,T50% Cmax,[2],5.92 h
"Cc1cccc(C)c1OCC(C)NC(=O)[C@@H](N)C[S+](C)[O-].O=C(O)C(F)(F)F (stereo partly drawn) [Mexiletine [(R)-S-methyl-cysteine, Mexiletine [(R)—S-Methyl-Cysteine Sulfoxide] Amide Trifluoroacetate]",AUC of mexiletine,[1],0.432 µg·h/mL
same,Cmax of mexiletine,[1],0.0622 µg/mL
same,T50% Cmax,[1],4.80 h
same,F(rel),"[1]; listed as Mexiletine methyl-cysteine sulfoxide amide, 1 mg/kg",62.6%
same,AUC of mexiletine,[2],144 ng·h/mL
same,Cmax of mexiletine,[2],59.9 ng/mL
same,T50% Cmax,[2],1.63 h
same,F(rel),[2],13.4%
"CC(=O)N[C@@H](CCCCN)C(=O)NC(C)COc1c(C)cccc1C.Cl (stereo partly drawn) [Mexiletine [(S)-N^α-acetyl-lysine] amide, Mexiletine [(S)—N^α-Acetyl-Lysine] Amide Hydrochloride]",AUC of mexiletine,[1],0.363 µg·h/mL
same,Cmax of mexiletine,[1],0.0303 µg/mL
same,T50% Cmax,[1],8.98 h
same,F(rel),"[1]; Hydrochloride, 1 mg/kg",60%
same,F(rel),"[1]; listed as Mexiletine acetyl Lysine amide, Hydrochloride, 1 mg/kg",52.6%
same,AUC of mexiletine,[2],893 ng·h/mL
same,Cmax of mexiletine,[2],90.8 ng/mL
same,T50% Cmax,[2],8.08 h
same,F(rel),"[2]; listed as Mexiletine α acetyl lysine amide, Hydrochloride, 1 mg/kg",83.1%
"Cc1cccc(C)c1OCC(C)NC(=O)[C@@H](N)C(C)(C)O (stereo partly drawn) [Mexiletine [^α-hydroxy-(5)-valine] amide, Mexiletine [β-hydroxy-(S)-valine] amide]",Cmax of mexiletine,[1],BLQ
same,Cmax of mexiletine,[2],1.68 ng/mL
Cc1cccc(C)c1OCC(C)NC(=O)C(N)CCCNC(=N)N (stereo not drawn) [Mexiletine arginine amide],T50% Cmax,[1],4.48 h
same,T50% Cmax,[2],6.5** h
Cc1cccc(C)c1OCC(C)NC(=O)C(N)CCCNC(N)=O (stereo not drawn) [Mexiletine citrulline amide],T50% Cmax,[2],3.0** h
Cc1cccc(C)c1OCC(C)NC(=O)C(N)C1CC1 (stereo not drawn) [Mexiletine cyclopropyl glycine amide],Cmax of mexiletine,[1],0.000895 µg/mL
same,Cmax of mexiletine,[2],0.703 ng/mL
Cc1cccc(C)c1OCC(C)NC(=O)[C@@H](N)CCC(N)=O.Cl (stereo partly drawn) [Mexiletine glutamine amide],AUC of mexiletine,[1],0.649 µg·h/mL
same,Cmax of mexiletine,[1],0.105 µg/mL
same,T50% Cmax,[1],4.0 h
same,F(rel),[1],94.1%
same,Bioavailability with respect to mexiletine,[2],near complete
same,AUC of mexiletine,[2],790 ng·h/mL
same,Cmax of mexiletine,[2],117 ng/mL
same,T50% Cmax,[2],5.60 h
same,F(rel),[2],73.5%
"Cc1cccc(C)c1OCC(C)NC(=O)[C@@H](N)CCCCN=C(N)N.Cl.Cl (stereo partly drawn) [Mexiletine homo arginine amide, Mexiletine-(S)-Homoarginine Amide Dihydrochloride]",AUC of mexiletine,[1],0.424 µg·h/mL
same,Cmax of mexiletine,[1],0.0568 µg/mL
same,T50% Cmax,[1],5.13 h
same,F(rel),[1],61.5%
same,AUC of mexiletine,[2],563 ng·h/mL
same,Cmax of mexiletine,[2],86.9 ng/mL
same,T50% Cmax,[2],5.39 h
same,F(rel),[2],52.4%
Cc1cccc(C)c1OCC(C)NC(=O)c1ccncc1 (stereo not drawn) [Mexiletine isonicotinic acid amide],Bioavailability with respect to mexiletine,[2],negligible
Cc1cccc(C)c1OCC(C)NC(=O)c1cccnc1 (stereo not drawn) [Mexiletine nicotinic acid amide],Bioavailability with respect to mexiletine,[2],negligible
same,Cmax of mexiletine,[2],BLQ
"Cc1cccc(C)c1OCC(C)NC(=O)[C@@H](N)CCCN (stereo partly drawn) [Mexiletine ornithine amide, Mexiletine-(S)-Ornithine Amide Di-hydrochloride]",Simulated gastric fluid (pH 1.1): % remaining after 2 h/37° C.,[3],99.7%
same,Simulated intestinal fluid (pH 6.8): % remaining after 2 h/37° C.,[3],99.8%
same,"pH 7.4, 37° C. 0.1M phosphate buffer: % remaining after 2 h/37° C.",[4],99.5%
"Cc1cccc(C)c1OCC(C)NC(=O)[C@@H](N)Cc1ccccc1.Cl (stereo partly drawn) [Mexiletine phenylalanine amide, Mexiletine-(S)-Phenylalanine Amide Hydrochloride]",T50% Cmax,[2],3.5** h
Cc1cccc(C)c1OCC(C)NC(=O)C(N)CO (stereo not drawn) [Mexiletine serine amide],T50% Cmax,[1],5.05 h
same,T50% Cmax,[2],6.00 h
"Cc1cccc(C)c1OCC(C)NC(=O)[C@@H](N)C(C)C.Cl (stereo partly drawn) [Mexiletine valine amide, Mexiletine-(S)-Valine Amide Hydrochloride]",Simulated gastric fluid (pH 1.1): % remaining after 2 h/37° C.,[3],98.7%
same,Simulated intestinal fluid (pH 6.8): % remaining after 2 h/37° C.,[3],98.3%
same,"pH 7.4, 37° C. 0.1M phosphate buffer: % remaining after 2 h/37° C.",[4],98.8%
same,T50% Cmax,[2],5.0** h
"Cc1cccc(C)c1OCC(C)NC(=O)[C@@H](NC(=O)[C@@H](N)C(C)C)C(C)C.Cl (stereo partly drawn) [Mexiletine valine-valine amide, Mexiletine-valine-valine Amide Hydrochloride]",T50% Cmax,[2],4.25** h
Cc1cccc(C)c1OCC(C)NC(=O)CCN (stereo not drawn) [Mexiletine β alanine amide],Cmax of mexiletine,[1],BLQ
same,Cmax of mexiletine,[2],BLQ
"Cc1cccc(C)c1OCC(C)NC(=O)[C@@H](N)CC(=O)O (stereo partly drawn) [Mexiletine-(S)-aspartic acid amide, Mexiletine-(S)-Aspartic Acid Amide Hydrochloride]",Simulated gastric fluid (pH 1.1): % remaining after 2 h/37° C.,[3],99.2%
same,Simulated intestinal fluid (pH 6.8): % remaining after 2 h/37° C.,[3],99.9%
same,"pH 7.4, 37° C. 0.1M phosphate buffer: % remaining after 2 h/37° C.",[4],99.9%
NCC1(CC(=O)O)CCCCC1 [gabapentin],Bioavailability,[6]; 900 mg/day gabapentin,approximately 60%
same,Bioavailability,[6]; 1200 mg/day gabapentin,~47%
same,Bioavailability,[6]; 2400 mg/day gabapentin,~34%
same,Bioavailability,[6]; 3600 mg/day gabapentin,~33%
same,Bioavailability,[6]; 4800 mg/day gabapentin,~27%
Cc1cccc(C)c1NC(=O)C(C)N (stereo not drawn) [tocamide],Increase in the speed of stair step movement,[7],2.7 fold
same,Reduction in the time taken for eye opening,[7],7 fold
same,Reduction of hand opening time,[7],4.2 fold
